According to patent publication EP3635128B1, “CONTINUOUS SPECTROMETRIC ASSAYS FOR MEASURING MEPRIN ACTIVITY USING AN AUXILIARY ENZYME” (Vivoryon Therapeutics AG, priority 2017, dated 2018):
pKi: −log10 of the molar value. Read-outs that look alike come from different tables or passages of the source. Peptide text beside a SMILES is read from it. * marks the point of attachment. pNA = O=[N+]([O-])c1ccc(N*)cc1; AMC = Cc1cc(=O)oc2cc(N*)ccc12

Key:
h-meprin β [1] = target: T1, h-meprin β (Homo sapiens, UniProt Q16820); test: coupled continuous spectrophotometric assay with auxiliary enzyme PtP and chromogenic pNA substrates; type: biochemical; set-up: His6 (N); made in house; host or cells: Pichia pastoris strain X33; conditions: for Kcat / Kcat/KM (s^-1M^-1) / Km: hydrolysis of pNA substrate by meprin β, means ± S.D.
T1 sequence (Q16820 62-701): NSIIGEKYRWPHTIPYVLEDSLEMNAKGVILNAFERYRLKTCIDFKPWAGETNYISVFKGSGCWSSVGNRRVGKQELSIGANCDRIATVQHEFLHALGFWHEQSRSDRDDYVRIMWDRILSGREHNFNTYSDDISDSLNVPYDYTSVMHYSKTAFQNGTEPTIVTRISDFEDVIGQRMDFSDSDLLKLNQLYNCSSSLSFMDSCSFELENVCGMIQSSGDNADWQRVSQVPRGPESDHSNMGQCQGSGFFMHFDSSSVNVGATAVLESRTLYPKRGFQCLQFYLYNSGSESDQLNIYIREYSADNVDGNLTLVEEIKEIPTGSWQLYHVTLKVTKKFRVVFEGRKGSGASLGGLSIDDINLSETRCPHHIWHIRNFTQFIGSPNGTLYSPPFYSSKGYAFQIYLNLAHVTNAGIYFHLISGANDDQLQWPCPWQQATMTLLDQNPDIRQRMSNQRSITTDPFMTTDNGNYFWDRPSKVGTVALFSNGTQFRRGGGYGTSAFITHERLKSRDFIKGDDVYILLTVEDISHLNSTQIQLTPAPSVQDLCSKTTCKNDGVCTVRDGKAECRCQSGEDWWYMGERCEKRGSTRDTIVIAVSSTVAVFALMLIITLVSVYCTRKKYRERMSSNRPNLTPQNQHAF
Protocol: (§1) The enzyme assay consisted of prolyl tripeptidyl aminopeptidase from Porphyromonas gingivalis, an appropriate amount of human h-meprin β or α and the chromogenic substrate KKGYVADAP-pNA (stock solution in assay buffer) in a final volume of 0.25 ml h-meprin β assay buffer (20 mM Tris-HCI; pH 7.5) or h-meprin α assay buffer (20 mM HEPES, 10 mM CaCl2, 0,05% Brij; pH 7.4). After 10 minutes preincubation, the reaction was started by addition of the substrate. Subsequently, absorption was measured at 405 nm for 20 minutes with the Tecan Genios Pro Reader (Tecan) at 30°C. PtP activity was determined using an absorption coefficient of 5717 mol/l, which was obtained from a standard curve of p-nitroaniline under assay conditions. A molecular mass of 79500 Da was used to calculate the Kcat value. Prolyl tripeptidyl aminopeptidase activity was measured utilizing the substrate DAP-pNA. In order to maintain conditions identical to those used in the h-meprin β assay, samples (250 µl) contained a final concentration of 0.2% (v/v) dimethyl sulfoxide. One unit is defined as the amount of enzyme that hydrolyses 1 µmol DAP-pNA per minute under the conditions described. The specific activity of the enzyme preparation was 7 units/mg.
(§2) In the first reaction of the substrate conversion, KKGYVADAP-pNA is cleaved to DAP-pNA by meprin α or β. The second reaction, the release of p-nitroaniline by PtP can be measured in this assay and correlates to the amount of released DAP-pNA by meprin. Based on these terms, a rate equation for irreversible coupled enzyme assays was first described by McClure, giving the opportunity of calculating the required amount of an auxiliary enzyme to minimize the time to reach steady-state conditions (McClure, W. R., Biochemistry. 1969, 8 (7), 2782-2786; Schilling, S., Hoffmann, T., Wermann, M., Heiser, U., Wasternack, C., Demuth, H.-U., Analytical biochemistry. 2002, 303 (1), 49-56, 10.1006/abio.2001.5560). The amount of auxiliary enzyme was calculated as follows (Eq. 1): V2 = −Km2 × ln(1−[DAP−pNA]t/[DAP−pNA]ss)/t. [formula]

h-meprin β [2] = target: T1, h-meprin β; set-up: His6 (N); made in house; host or cells: Pichia pastoris strain X33; conditions: cited from earlier work; for substrate inhibition at concentrations above: internally quenched substrate, meprin β
h-meprin β [3] = target: T1, h-meprin β; set-up: His6 (N, cleaved yes); made in house; host or cells: Pichia pastoris X33 (pPICZαC), protein harvested from the fermenter supernatant; conditions: fluorogenic substrate Abz-YVAEAPK(Dpn)G-OH; from Schlenzig et al. 2015; cited from earlier work
h-meprin α [4] = target: T2, h-meprin α (Homo sapiens, UniProt Q16819); test: non-coupled assay with internally quenched fluorogenic substrate; type: biochemical; conditions: fluorogenic substrate Abz-YVADAPK(Dpn)G-OH; unpublished data
T2 construct: His-tag (N); made in house; host or cells: Drosophila melanogaster S2 cells, stably transfected (pMT/BiP/V5-His C), protein harvested from the culture medium
T2 sequence (Q16819 66-746): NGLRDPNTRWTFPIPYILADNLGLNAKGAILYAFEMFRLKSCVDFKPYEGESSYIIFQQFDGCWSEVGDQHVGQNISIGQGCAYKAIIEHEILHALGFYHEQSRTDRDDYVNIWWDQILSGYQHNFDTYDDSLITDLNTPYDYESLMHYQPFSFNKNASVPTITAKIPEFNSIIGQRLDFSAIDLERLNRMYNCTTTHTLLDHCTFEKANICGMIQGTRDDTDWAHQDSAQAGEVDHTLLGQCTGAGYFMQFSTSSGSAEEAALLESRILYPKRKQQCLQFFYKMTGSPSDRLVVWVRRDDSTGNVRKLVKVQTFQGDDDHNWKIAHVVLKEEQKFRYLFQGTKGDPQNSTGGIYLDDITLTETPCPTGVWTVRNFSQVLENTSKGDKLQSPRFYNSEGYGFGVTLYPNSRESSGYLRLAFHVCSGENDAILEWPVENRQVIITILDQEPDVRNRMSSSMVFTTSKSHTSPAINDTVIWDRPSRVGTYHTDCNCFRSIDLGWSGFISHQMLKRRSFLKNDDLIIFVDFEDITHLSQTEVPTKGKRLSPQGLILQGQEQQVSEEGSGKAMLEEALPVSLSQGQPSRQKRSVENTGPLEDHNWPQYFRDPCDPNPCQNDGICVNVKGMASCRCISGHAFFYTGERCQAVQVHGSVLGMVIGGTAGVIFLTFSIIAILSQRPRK

h-meprin β [5] = target: T1, h-meprin β; test: coupled continuous spectrophotometric assay with auxiliary enzyme PtP and chromogenic pNA substrates; type: biochemical; set-up: His6 (N, cleaved yes); made in house; host or cells: Pichia pastoris X33 (pPICZαC), protein harvested from the fermenter supernatant
Protocol: as §1, §2

h-meprin α [6] = target: T2, h-meprin α; test: coupled continuous spectrophotometric assay with auxiliary enzyme PtP and chromogenic substrate KKGYVADAP-pNA; type: biochemical
Protocol: as §1, §2

h-meprin β [7] = target: T1, h-meprin β; test: coupled continuous fluorometric assay with auxiliary enzyme PtP and fluorogenic AMC substrates; type: biochemical; set-up: His6 (N); made in house; host or cells: Pichia pastoris strain X33
Protocol: as §1
Conversion of the fluorogenic substrate KKGYVADAP-AMC by PtP and h-meprin β was analyzed according to assay conditions as described for the chromogenic substrate. Fluorescence was measured at excitation/emission wavelengths of 380/460 nm. The fluorescence coefficient of 8.5×10^8 mol/l for DAP-AMC was calculated from a standard curve of 7-Amino-4-methylcoumarin under assay conditions.

[8] = hydrolysis of internally quenched substrate by meprin β, from Schlenzig et al. 2015
[9] = Dixon plot, four substrate concentrations of KKGYVADAP-pNA
[10] = chromogenic substrate KKGYVADAP-pNA, coupled continuous assay, means ± S.D.
[11] = substrate KKGYVADAP-pNA, six inhibitor and four substrate concentrations
[12] = hydrolysis of AMC substrate by meprin β, means ± S.D.

For `CC(=O)N[C@@H](CCCNC(=N)N)C(=O)NCC(=O)N[C@@H](CCCNC(=N)N)C(=O)NCC(=O)N[C@@H](Cc1ccc(O)cc1)C(=O)N[C@H](C(=O)N[C@@H](C)C(=O)N[C@@H](CC(=O)O)C(=O)N[C@@H](C)C(=O)N1CCC[C@H]1C(=O)Nc1ccc([N+](=O)[O-])cc1)C(C)C` [Ac-RGRGYVADAP-pNA] (Ac-RGRGYVADAP-pNA), the “Kcat” value (h-meprin β [1]) was 19.9 ± 10.2 s⁻¹, the “Kcat/KM (s^-1M^-1)” value (h-meprin β [1]) was 15.0×10^4±1.1×10^5 s^-1M^-1 and the Km (h-meprin β [1]) was 140 µM.
For `CC(=O)N[C@@H](CCCCN)C(=O)N[C@@H](CCCCN)C(=O)NCC(=O)N[C@@H](Cc1ccc(O)cc1)C(=O)N[C@H](C(=O)N[C@@H](C)C(=O)N[C@@H](CC(=O)O)C(=O)N[C@@H](C)C(=O)N1CCC[C@H]1C(=O)Nc1ccc([N+](=O)[O-])cc1)C(C)C` [Ac-KKGYVADAP-pNA] (Ac-KKGYVADAP-pNA), the “Kcat” value (h-meprin β [1]) was 20.0 ± 3.5 s⁻¹, the “Kcat/KM (s^-1M^-1)” value (h-meprin β [1]) was 6.4x10^4 ± 2.5x10^4 s^-1M^-1 and the Km (h-meprin β [1]) was 360 µM.
In the case of `CC(C)[C@H](NC(=O)[C@H](Cc1ccc(O)cc1)NC(=O)CNC(=O)[C@H](CCCCN)NC(=O)[C@@H](N)CCCCN)C(=O)N[C@@H](C)C(=O)N[C@@H](CC(=O)O)C(=O)N[C@@H](C)C(=O)N1CCC[C@H]1C(=O)Nc1ccc([N+](=O)[O-])cc1` [KKGYVADAP-pNA, H-Lys-Lys-Gly-Tyr-Val-Ala-Asp-Ala-Pro-pNA] (H-KKGYVADAP-pNA), the substrate inhibition (h-meprin β [1]; at concentrations up to 2 mM) was “no inhibitory effect”, the “Kcat” value (h-meprin β [1]) was 20 ± 4.1 s⁻¹ and the “Kcat/KM (s^-1M^-1)” value (h-meprin β [1]) was 11.0×10^4 ± 4.8×10^3 s^-1M^-1. It also gave a Km (h-meprin β [1]) of 180 µM.
For Abz-YVAEAPK(Dpn)G-OH, the “Kcat” value (h-meprin β [2]; [8]) is given as 35.0 ± 2.5 s⁻¹, the “Kcat/KM (s^-1M^-1)” value (h-meprin β [2]; [8]) is given as 129.0×10^4 ± 3.0×10^4 s^-1M^-1 and the Km (h-meprin β [2]; [8]) is given as 27 µM. The “substrate inhibition at concentrations above” value (h-meprin β [2]) was “above 100 µM”.
In the case of Abz-MGWMDEIDK(Dnp)SG-OH [OCK+], the “substrate inhibition at concentrations above” value (h-meprin β [2]) is listed as “above 40 µM”.
For `CCCCC[C@H](CC(=O)NO)C(=O)N[C@H](C(=O)N1CCC[C@H]1CO)C(C)C` [actinonin], the IC50 (h-meprin β [3]) is listed as 440 nM, the IC50 (h-meprin α [4]) is listed as 9.6 nM and the mode of inhibition (h-meprin β [5]; [9]) is listed as “competitive”. The IC50 (h-meprin β [5]; [10]) was 760 nM, the pKi (h-meprin β [5]; [11]) was 6.57 and the mode of inhibition (h-meprin α [6]; [9]) was “competitive”. For the same molecule, the IC50 (h-meprin α [6]; [10]) was 12 nM and the pKi (h-meprin α [6]; [11]) was 8.49.
For `Cc1cc(=O)oc2cc(NC(=O)[C@@H]3CCCN3C(=O)[C@H](C)NC(=O)[C@H](CC(=O)O)NC(=O)[C@H](C)NC(=O)[C@@H](NC(=O)[C@H](Cc3ccc(O)cc3)NC(=O)CNC(=O)[C@H](CCCCN)NC(=O)[C@@H](N)CCCCN)C(C)C)ccc12` [KKGYVADAP-AMC, H-Lys-Lys-Gly-Tyr-Val-Ala-Asp-Ala-Pro-AMC] (H-KKGYVADAP-{AMC}), the substrate inhibition (h-meprin β [7]; at concentrations up to 2 mM) was “no inhibitory effect”, the “Kcat (s^-1)” value (h-meprin β [7]; [12]) was 4.3 ± 6.1×10^-1 s^-1 and the “Kcat/KM (s^-1M^-1)” value (h-meprin β [7]; [12]) was 6.0×10^4 ± 1.6×10^4 s^-1M^-1. It also gave a Km (h-meprin β [7]; [12]) of 74 µM.
With `CC(=O)N[C@@H](CCCCN)C(=O)N[C@@H](CCCCN)C(=O)NCC(=O)N[C@@H](Cc1ccc(O)cc1)C(=O)N[C@H](C(=O)N[C@@H](C)C(=O)N[C@@H](CC(=O)O)C(=O)N[C@@H](C)C(=O)N1CCC[C@H]1C(=O)Nc1ccc2c(C)cc(=O)oc2c1)C(C)C` [Ac-KKGYVADAP-AMC] (Ac-KKGYVADAP-{AMC}) the “Kcat” value (h-meprin β [7]; [12]) was 6.3 ± 1 s⁻¹, the “Kcat/KM (s^-1M^-1)” value (h-meprin β [7]; [12]) was 10.0×10^4 ± 1.4×10^4 s^-1M^-1 and the Km (h-meprin β [7]; [12]) was 64 µM.
